Experimental data from US8187878B2, “Methods for increasing definitive endoderm differentiation of pluripotent human embryonic stem cells with PI-3 kinase inhibitors” (University of Georgia Research Foundation, Inc., priority 2004, dated 2012).

Tests used:
BG01 cells [1] = assay: Sox17 Q-PCR, GSK3 inhibitor on LY 294002 induced DE formation; format: cell-based, human; conditions: 60 μM LY 294002; BIO 0.1-5 μM, MeBIO 1-5 μM; 3-4 days
Procedure: BG01 cells were passaged on matrigel using the collagenase/trypsin method as described above and were plated on matrigel-coated chamber slides in CM. After approximately 24 hours, the medium was changed, and the cells were treated with 60 μM LY 294002, BIO, meBIO, or DMSO for approximately 3-4 days. The inhibitor BIO (Dr. Ali Brivanlou) was diluted in DMSO and was used at a concentration of approximately 0.1-5 μM. MeBIO (Dr. Ali Brivanlou) was also diluted in DMSO and used at a concentration of approximately 1-5 μM. Assays were performed in triplicate and are shown as +/−SEM.
Cells were grown in these conditions for approximately 3-4 days with a medium change every 24 hours. Cells were harvested using the collagenase/trypsin method for Q-PCR as described above

BG01 cell line = assay: SOX17 and AFP immunofluorescence staining; format: cell-based, human
Procedure: Cells to be immunostained were grown on chamber slides, and were rinsed once with 1×PBS and fixed for 10 minutes in 4% PFA/4% sucrose in PBS pH 7.4 at room temperature. They were then rinsed 3× in 1×PBS and blocked in 3% goat serum with 0.1% Triton-X100 in PBS for 1 hour at room temperature. Primary antibodies were diluted in 3% goat serum in PBS and this solution was applied overnight at 4° C. The primary antibodies used were rabbit anti-human AFP (Zymed), used at a 1:50 dilution, and rat anti-human SOX17 (obtained from Cythera, Inc.), used at 1:1000 dilution. Cells were washed for 1 hour with 3 changes of 1×PBS. Secondary antibodies were applied for 2 hours at room temperature. Secondary antibodies used were goat anti-rabbit Alexa Fluor 488 and goat anti-rat Alexa Fluor 594 (Molecular Probes), both at a 1:1000 dilution in 3% goat serum in 1×PBS. Cells were washed for 1 hour with 3 changes of 1×PBS. The chambers were removed and slides were mounted in VectaShield mounting medium with DAPI (Vector).

hESCs = assay: Kidney capsule assay of LY 294002 treated hESCs; format: in vivo, SCID-beige mice; conditions: relative to LY 294002 treated cells that were not implanted
Procedure: Untreated hESCs or hESCs treated for 4 days with 60 μM LY 294002 were collagenase treated to generate cell aggregates (˜50 cells/aggregate), washed in warm media, then gently resuspended in 2 ml DMEM/F12, 10% FCS and left overnight at 37° C., 10% CO2 to facilitate further aggregation. Approximately 2.5×10^6 cells were injected into the kidney capsule of 5 week old male SCID-beige mice. 6 weeks after transplantation, mice were sacrificed, and the kidneys were removed and fixed in 4% paraformaldehyde. Following fixation, kidneys were embedded in paraffin wax, sectioned and mounted onto glass slides in preparation for H&E and immunostaining. After mounting, slides underwent deparaffinization, rehydration and heat induced epitope retrieval with Trilogy (Cell Marque, CMX-833). Slides were stained using the alkaline phosphatase Vectastain ABC System (Vector Labs, AK-5002) and Vector Red substrate (Vector Labs, SK-5100). […] For fluorescence immunocytochemistry the following secondary antibodies were used; Alexa Fluor 488 goat anti-mouse IgG (Molecular Probes, A11001), Alexa Fluor 594 goat anti-rabbit IgG (Molecular Probes, A11012).

hESC = assay: Sox17 Q-PCR, MEF-CM and LY 294002 with signaling inhibitors; format: cell-based, human; conditions: proteins approximately 500 ng/ml, SB-43152 approximately 10 μM, SU-5402 approximately 5 μM
Procedure: Sox 17 expression was evaluated by Q-PCR under culture conditions competent to support hESC-DE formation (MEF-CM and LY 294002) in the presence or absence of Chordin (approximately 500 ng/ml), Follistatin (approximately 500 ng/ml), Lefty-A (approximately 500 ng/ml), Noggin (approximately 500 ng/ml), SB-43152 (approximately 10 μM), and SU-5402 (approximately 5 μM). Assays were performed in triplicate and are shown as +/−SEM.

BG01 cells [2] = assay: Sox17 Q-PCR, LY 294002 with conditioned medium or TGFβ members; format: cell-based, human; conditions: UCM, approximately 4 days
Procedure: BG01 cells were passaged from feeders using the collagenase/trypsin method and were plated on matrigel coated dishes at 1×10^5 cells/35 mm dish in unconditioned hES medium (UCM). After approximately 24 hours, the media was replaced with fresh hES medium or MEF-CM, along with LY 294002, Activin A, or Nodal as shown in FIG. 8A. LY 294002 was used at a concentration of approximately 60 μM; Activin A was used at a concentration of approximately 100 ng/ml; and Nodal was used at a concentration of approximately 1 μg/ml. Cells were treated for approximately 4 days, with a change in medium every 24 hours. Cells were harvested using the collagenase/trypsin method for Q-PCR analysis. Sox-17 Q-PCR was performed as described in Example 3.

MeBIO
LY 294002 induced DE formation as determined by Sox17 expression (BG01 cells [1]): not

O=C1Nc2cc(Br)ccc2/C1=C1/Nc2ccccc2/C1=N\O [BIO]
LY 294002 induced DE formation as determined by Sox17 expression (BG01 cells [1]): blocked

O=c1cc(N2CCOCC2)oc2c(-c3ccccc3)cccc12 [LY 294002]
cell population expressing SOX17 (BG01 cell line; counting 500 cells): 60%
cells expressing SOX17 (BG01 cell line; of 500 cells counted): 296 cells
increase in FABP1 mRNA (hESCs): 1000 fold
increase in albumin mRNA (hESCs): 4500 fold

NC(=O)c1ccc(-c2nc(-c3ccccn3)c(-c3ccc4c(c3)OCO4)[nH]2)cc1 [SB-43152]
LY 294002, MEF-CM dependent Sox17 expression (hESC): suppressed

B1: Activin A: member of the TGFβ family (protein, UniProt P08476 311-426, looked up)
Inhibin beta A chain: GLECDGKVNICCKKQFFVSFKDIGWNDWIIAPSGYHANYCEGECPSHIAGTSGSSLSFHSTVINHYRMRGHSPFANLKSCCVPTKLRPMSMLYYDDGQNIIKKDIQNMIVEECGCS
Sox17 expression (fold-increase over untreated) (BG01 cells [2]; LY 294002 approximately 60 μM plus Activin A approximately 100 ng/ml): Significant Sox17 expression

B2: Follistatin: inhibitor of Activin signaling (protein, UniProt P19883 30-344, looked up)
Follistatin: GNCWLRQAKNGRCQVLYKTELSKEECCSTGRLSTSWTEEDVNDNTLFKWMIFNGGAPNCIPCKETCENVDCGPGKKCRMNKKNKPRCVCAPDCSNITWKGPVCGLDGKTYRNECALLKARCKEQPELEVQYQGRCKKTCRDVFCPGSSTCVVDQTNNAYCVTCNRICPEPASSEQYLCGNDGVTYSSACHLRKATCLLGRSIGLAYEGKCIKAKSCEDIQCTGGKKCLWDFKVGRGRCSLCDELCPDSKSDEPVCASDNATYASECAMKEAACSSGVLLEVKHSGSCNSISEDTEEEEEDEDQDYSFPISSILEW
LY 294002, MEF-CM dependent Sox17 expression (hESC): suppressed

B3: Nodal: member of the TGFβ family (protein, UniProt Q96S42 238-347, looked up)
Nodal homolog: HHLPDRSQLCRKVKFQVDFNLIGWGSWIIYPKQYNAYRCEGECPNPVGEEFHPTNHAYIQSLLKRYQPHRVPSTCCAPVKTKPLSMLYVDNGRVLLDHHKDMIVEECGCL
Sox17 expression (fold-increase over untreated) (BG01 cells [2]; LY 294002 approximately 60 μM plus Nodal approximately 1 μg/ml): Significant Sox17 expression
